Where “and” joins values, the source holds several entries; their conditions need not be identical. Equal entries are not always repeated. Entries after “also recorded” stand apart in the source; their conditions may differ. Structures can show the parent of a compound that is named as a salt.
Legend:
[1] = In vitro iontophoretic sampling of glucose through skin into gel electrodes; assay type: in vitro ADME, hairless mouse (Skh: hr-1); conditions: for Amount Glucose Measured In Gel Electrode per Sample: four time periods; for Iontophoretic Flux sample (amount of glucose sampled in 2 hours): 0.5 mA, (+) electrode; for Sample-glucose: four cells
Method: In order to show the ability of the method to sample glucose through the skin, in vitro studies are conducted using hairless mouse skin as the skin model and the iontophoretic diffusion cells in FIGS. 1-13. The results here are applicable to in-vivo sampling from a mammal, particularly a human being. Two self-adhesive gel electrodes (Kenzgelelc, by Nitto Electric Industry Co., Limited, Osaka, Japan) are placed on the same side of a singe continuous piece of hairless mouse skin (full thickness-about 0.5 mm) (Skh: hr-1, 8-13 weeks old). Under the skin, radiolabelled (^14 C-U)-glucose having known concentration in solution in phosphate-buffered saline (0.9% sodium chloride) is perfused, pH of phosphate is about 7.4. Temperature is ambient.
In the first set of experiments, following the assembly of the cell and initiation of the glucose solution perfusion, current is applied (0.5 milliampere) for 2 hours. The voltage may vary from about 1 to 10 volts. Usually, it is about 5 volts. The important parameter to keep constant is the applied current. The voltage may vary based upon the electrical resistance of the sampling site. Then the gel electrodes are disconnected and tested for radioactivity content by conventional liquid scintillation counting. […]. […] (Electrical conditions in the experiments--same constant direct current (dc) but as iontophoretic delivery may also operate in pulsed current, etc., (the pulsed approach should also perform in a predictable way for sampling).
the second set of experiments, using similar experimental set-up as before, a (^14 C-U)-glucose solution of 0.34 mg/ml glucose is phosphate buffered saline is perfused, and the gel electrodes are replaced every 30 minutes.
Since the skin for each single experiment comes from a different mouse, evaluation of each single diffusion cell (means--samples collected through the same piece of skin), eliminating the first sample (the first 0.5 hr. is slightly higher than the others due to the experimental conditions) was done. […]

[2] = charged and uncharged TRH; excised nude mouse skin; cited from earlier work
[3] = In vitro iontophoretic delivery of P.S.O.S. from chamber 16A; assay type: in vitro ADME
Method: (b) P.S.O.S. (Potassium Sucrose Octa Sulfate) P.S.O.S., 0.6 ml of 1.5 mg/ml solution in a boric buffer is placed in chamber 16A and boric acid buffer alone is placed in chamber 16C of FIG. 1, 2 or 3. Using a direct current of 0.5 mA (0.65 mA/cm^2) transport of P.S.O.S. is observed up to 5 μg/hr.

[4] = Iontophoretic sampling in vitro (Example 2); assay type: in vitro ADME, hairless mouse; conditions: 0.5 mA, about 2 hr, about 0.63 mA/cm^2; various concentrations; mean of at least two experiments
Method: Iontophoretic sampling consists of pulling out chemical substances from the body through the skin by means of electricity. In order to test this method, an iontophoretic in-vitro cell is used (FIGS. 1, 2, 3 or 4). Full-thickness hairless mouse skin 13 (8-13 weeks old) is placed between the two parts of the cell. Solutions of radiolabelled drugs of known concentration in phosphate-buffered saline are circulated 10 ml/hr. beneath the skin. On top of the skin there are two self-adhesive gel electrodes, connected to a power supply which is set up in constant current mode (0.5 mA). Current is applied for measured length of time (about 2 hr.) corresponding to about 0.63 mA/cm^2. After the experiment the gel electrodes are taken for scintillation counting, which reflects the amount of drug absorbed by the gel electrodes. Using different drug concentrations with the same electrical current for the same period of time, a linear correlation between the amount is collected by the electrode and drug concentration is expected.

[5] = In vivo iontophoretic sampling (biosensing) in dog
From the text: The sampling of the radioactive clonidine in vitro is described above. […] The operator is alerted when to administer an injection clondine to maintain the desired level of clonidine in the test dog.

[6] = In vivo sampling with iontophoresis cell on human forearm; conditions: forearm of person; versus in vitro case
From the text: The procedure and description above for in vitro sampling is used except that the membrane is replaced by the top of the forearm of a human being. The sampling cell used is the one in FIGS. 7, 8, 9A and 9B.

[7] = Method: (1) Leakage tests (without current) using dye and silicone rubber than skin; (2) leakage tests using dye and skin (without current); and (3) iontophoretic tests using the drug solutions and skin (with and without current). Procedures (1) and (2) were evaluated by visually inspecting the cell. […] The activity of the skin 13 and of the samples taken from the receptor chamber was determined post-experimentally. Each experiment lasts approximately 24 hours, ±2 hours, with samples collected hourly. Receptor fluid 17 was magnetically stirred (27), and the collection flow rate was 10 ml/hr.

O=C[C@H](O)[C@@H](O)[C@H](O)[C@H](O)CO [glucose]
S.D. for individual diffusion cells (individual mouse) ([1]; 0.34 mg/ml glucose, except cell #3): 4 to 9%
Amount of glucose sampled, average of four separate cells ([1]; 0.34 mg/ml glucose, first 0.5 hr sample eliminated): 0.79 to 0.74 μg
Ratio A/B of glucose sampled ([1]; 0.153 vs 1.07 mg/ml (concentration ratio 0.143)): 0.144
Sample-glucose, Average ([1]; average of samples 1-5 (0 - 2 1/2 hr), 0.34 mg/ml glucose, 15 ml/hr): 0.80 ± 0.19 µg
Amount Glucose Measured In Gel Electrode per Sample ([1]; cell 1, 0.34 mg/ml glucose, 15 ml/hr): 0.825 ± 0.041 µg
Amount Glucose Measured In Gel Electrode per Sample ([1]; cell 2, 0.34 mg/ml glucose, 15 ml/hr): 0.963 ± 0.090 µg
Amount Glucose Measured In Gel Electrode per Sample ([1]; cell 3, 0.34 mg/ml glucose, 15 ml/hr): 0.530 ± 0.115 µg
Amount Glucose Measured In Gel Electrode per Sample ([1]; cell 5, 0.34 mg/ml glucose, 15 ml/hr): 0.727 ± 0.033 µg
Correlation between glucose concentration under/in the skin and amount of glucose sampled ([1]; fixed sampling time, same electrical conditions): near-perfect linear correlation; also recorded: clear correlation
Iontophoretic Flux sample (amount of glucose sampled in 2 hours) ([1]; glucose concentration 0.153 mg/ml): 0.705 μg/2 hr and 0.705 +/- 0.095 μg/2 hr
Iontophoretic Flux sample (amount of glucose sampled in 2 hours) ([1]; glucose concentration 1.07 mg/ml): 4.9 μg/2 hr and 4.9 +/- 0.7 μg/2 hr
Sample-glucose ([1]; sample 1, 0 - 1/2 hr, 0.34 mg/ml glucose, 15 ml/hr): 0.97 ± 0.12 µg
Sample-glucose ([1]; sample 2, 1/2 - 1 hr, 0.34 mg/ml glucose, 15 ml/hr): 0.79 ± 0.09 µg
Sample-glucose ([1]; sample 3, 1 - 1 1/2 hr, 0.34 mg/ml glucose, 15 ml/hr): 0.76 ± 0.10 µg
Sample-glucose ([1]; sample 4, 1 1/2 - 2 hr, 0.34 mg/ml glucose, 15 ml/hr): 0.75 ± 0.21 µg
Sample-glucose ([1]; sample 5, 2 - 2 1/2 hr, 0.34 mg/ml glucose, 15 ml/hr): 0.74 ± 0.24 µg

NC(=O)[C@@H]1CCCN1C(=O)[C@H](Cc1cnc[nH]1)NC(=O)[C@@H]1CCC(=O)N1 [TRH, thyrotropin releasing hormone]
Iontophoretic flux across excised tissue compared with passive diffusion [2]: greater than those obtained by passive diffusion alone

O=S(=O)(O)OC[C@H]1O[C@@](COS(=O)(=O)O)(O[C@H]2O[C@H](COS(=O)(=O)O)[C@@H](OS(=O)(=O)O)[C@H](OS(=O)(=O)O)[C@H]2OS(=O)(=O)O)[C@@H](OS(=O)(=O)O)[C@@H]1OS(=O)(=O)O [P.S.O.S., Potassium Sucrose Octa Sulfate]
Transport of P.S.O.S. ([3]; direct current 0.5 mA (0.65 mA/cm^2), 0.6 ml of 1.5 mg/ml solution): up to 5 μg/hr
Amount of P.S.O.S. transferred ([3]; printed 'with a current' (comparison, same configuration)): only a few nanograms

Clc1cccc(Cl)c1N=C1NCCN1 [clonidine-HCl, Clonidine HCl]
Linearity of amount sampled versus drug concentration (FIG. 11 and 12) [4]: linearity of the results
Level of radioactive clonidine measured iontophoretically [5]: quickly and accurately
Amount of clonidine sampled in vivo [6]: comparable to that observed in the in vitro case
Rate of penetration through the skin with current ([7]; 0.63 mA/cm^2): 15.0 μg/cm^2 /hr
Mean rate of diffusion into the receptor phase (passive transport rate) ([7]; no current): 0.05 μg/cm^2 /hr
Drug found in the buffered saline of chamber 16C ([7]; no current, after 20 hours): no drug was found
Amount of labelled drug in the buffered saline of chamber 16C ([7]; with current 0.63 mA/cm^2, approximately 20 hours): 5 µg

From patent US5279543A, “Device for iontophoretic non-invasive sampling or delivery of substances” (priority 1992, dated 1994)
